Reference: patent publication US10513518B2, “Inhibitors of the renal outer medullary potassium channel” (Merck Sharp & Dohme Corp., priority 2015, dated 2019)
pIC50: −log10 of the molar value.

Molecular target: hROMK (hKir1.1) (Homo sapiens (Human), UniProt P48048)
Assay: Thallium Flux Assay (ROMK channel functional thallium flux assay, FLIPR-Tetra)
Assay type: cell-based
Settings: HEK293 cells stably expressing hROMK (hKir1.1); 30 min incubation with test compound
Protocol: The following Thallium Flux Assay was performed on each of the final product compounds in the Examples.
HEK293 cells stably expressing hROMK (hKir1.1) were grown at 37° C. in a 10% CO2 humidified incubator in complete growth media: Dulbecco's Modified Eagle Medium supplemented with non-essential amino acids, Penicillin/Streptomycin/Glutamine, G418 and FBS. At >80% confluency, aspirate the media from the flask and rinse with 10 mL Calcium/Magnesium-free PBS. 5 mL of 1× trypsin (prepared in Ca/Mg Free PBS) was added to a T-225 flask and the flask was returned to the 37° C./CO2 incubator for 2-3 minutes. The cell was dislodged by genitly banging the side of the flask by hand. The cells were titrated completely and then the cells were transferred to 25 mL complete media. The cells were centrifuged at 1,500 rpm for 6 min followed by resuspension in complete growth media and cell concentration was determined. 4E6 cells/T-225 flask attained >80% confluency in 4 days. Under ideal growth conditions and appropriate tissue culture practices, this cell line was stable for 40-45 passages.
FluxOR Kit Components (Invitrogen F10017)
• FluxOR™ Reagent (Component A) • FluxOR™ Assay Buffer (Component B)—10× Concentrate • PowerLoad™ Concentrate (Component C)—100× Concentrate • Probenecid (Component D)—Lyophilized sample is kept at −20° C. Water soluble, 100× after solubilization in 1 mL water. Store at 4° C. • FluxOR™ Chloride-free Buffer (Component E)—5× Concentrate • Potassium sulfate (K2SO4) Concentrate (Component F)—125 mM in water. Store at 4° C. • Thallium sulfate (TI2SO4) Concentrate (Component G)—50 mM in water. Store at 4° C. • DMSO (dimethyl sulfoxide, Component H)—1 mL (100%) Reagent Preparation: FluxOR Working Solutions • 1000× FluxOR™ Reagent: Reconstitute a vial of component A in 100 μl DMSO; Mix well; Store 10 μl aliquots at −20° C. • 1× FluxOR™ Assay Buffer: Dilute Component B 10-fold with water; Adjust pH to 7.4 with Hepes/NaOH; Filter and store at 4° C. • Probenecid/Assay Buffer: 100 mL of 1× FluxOR™ Assay Buffer; 1 mL of reconstituted component D; Store at 4° C. • Loading Buffer (per microplate): 10 μl 1000× FluxOR™ Reagent; 100 μl component C; 10 mL Probenecid/Assay Buffer • Compound Buffer (per microplate): 20 mL Probenecid/Assay Buffer; 0.3 mM ouabain (10 mM ouabain in water can be stored in amber bottle/aluminum foil at room temperature); Test compound • 1× FluxOR™ Chloride-Free Buffer: Prepare 1× working solution in water. Can be stored at room temperature • Stimulant Buffer (prepared at 5× final concentration in 1× FluxOR™ Chloride-Free Buffer): 7.5 mM Thallium sulfate and 0.75 mM Potassium sulfate (to give a final assay concentration of 3 mM Thallium/0.3 mM Potassium). Store at 4° C. when not in use. If kept sterile, this solution is good for months. Assay Protocol—
The ROMK channel functional thallium flux assay was performed in 384 wells, using the FLIPR-Tetra instrument. HEK-hKir1.1 cells were seeded in Poly-D-Lysine microplates and kept in a 37° C.-10% CO2 incubator overnight. On the day of the experiment, the growth media was replaced with the FluxOR™ reagent loading buffer and incubated, protected from light, at ambient temperature (23-25° C.) for 90 min. The loading buffer was replaced with assay buffer±test compound followed by 30 min incubation at ambient temperature, where the Thallium/Potassium stimulant was added to the microplate.
1. Seed HEK-hKir1.1 cells (50 μl at 20,000 cells/well) in 384-well PDL coated Microplates
2. Allow cells to adhere overnight in humidified 37° C./10% CO2 incubator
3. Completely remove cell growth media from microplate and replace with 25 μl loading buffer
4. Incubate Microplate at room temperature, protected form light, for 90 min
5. Remove loading buffer and replace with 25 μl 1× Assay Buffer±test compound.
6. Incubate microplate at room temperature, protected from light, for 30 min
7. At FLIPR-Tetra 384: Add stimulant (Thallium/Potassium) solution to microplate and monitor fluorescence. […]

hROMK (hKir1.1), sequence (P48048 whole entry): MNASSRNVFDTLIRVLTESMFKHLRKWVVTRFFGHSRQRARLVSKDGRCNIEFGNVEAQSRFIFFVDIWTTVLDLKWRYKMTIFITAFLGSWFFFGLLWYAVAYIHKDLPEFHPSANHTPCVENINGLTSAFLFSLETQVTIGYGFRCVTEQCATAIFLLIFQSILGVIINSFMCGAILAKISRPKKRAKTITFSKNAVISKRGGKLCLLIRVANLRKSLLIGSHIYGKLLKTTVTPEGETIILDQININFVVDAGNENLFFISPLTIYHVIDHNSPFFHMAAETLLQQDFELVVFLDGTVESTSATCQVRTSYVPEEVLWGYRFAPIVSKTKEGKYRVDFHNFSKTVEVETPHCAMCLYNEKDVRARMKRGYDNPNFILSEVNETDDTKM

Molecule	pIC50
8(1R,3r,5S)-8-(2-hydroxy-2-(2-methyl-6-(1H-tetrazol-1-yl)60icycle60-3-yl)ethyl)-1′-(2-methyl-3-oxocyclopent-1-en-1-yl)-8-azaspiro[bicyclo[3.2.1]octane-3,3′-pyrrolidin]-2′-one [Example 5]	7.31
Cc1nc(-n2cnnn2)ccc1C(O)CN1CCC2(CC1)CCN(C1=CS(=O)(=O)CC1)C2=O (single isomer, unassigned) [Example 1, 2-(1,1-dioxido-4,5-dihydrothiophen-3-yl)-8-(2-hydroxy-2-(2-methyl-6-(1H-tetrazol-1-yl)pyridin-3-yl)ethyl)-2,8-diazaspiro[4.5]decan-1-one]	6.19
CC1=C(N2CCC3(CCCN(CC(O)c4ccc(-n5cnnn5)nc4C)CC3)C2=O)CCC1=O (single isomer, unassigned) [Example 3A, 8-(2-hydroxy-2-(2-methyl-6-(1H-tetrazol-1-yl)pyridin-3-yl)ethyl)-2-(2-methyl-3-oxocyclopent-1-en-1-yl)-2,8-diazaspiro[4.6]undecan-1-one]	6.49
CC1=C(N2CCC3(CCCN(CC(O)c4ccc(-n5cnnn5)nc4C)CC3)C2=O)CCC1=O (single isomer, unassigned) [Example 3B, 8-(2-hydroxy-2-(2-methyl-6-(1H-tetrazol-1-yl)pyridin-3-yl)ethyl)-2-(2-methyl-3-oxocyclopent-1-en-1-yl)-2,8-diazaspiro[4.6]undecan-1-one]	7.06
CC1=C(N2CCC3(CC4CCC(C3)N4CC(O)c3ccc(-n4cnnn4)cn3)C2=O)CCC1=O [Example 6, (1R,3r,5S)-8-(2-(5-(1H-tetrazol-1-yl)pyridin-2-yl)-2-hydroxyethyl)-1′-(2-methyl-3-oxocyclopent-1-en-1-yl)-8-azaspiro[bicyclo[3.2.1]octane-3,3′-pyrrolidin]-2′-one]	6.53
Cc1c([C@@H](O)CN2CCC3(CC2)CCN(C2=CC(=O)CC2)C3=O)ccc2c1COC2=O [Example 11]	6.92
Cc1c([C@@H](O)CN2CCC3(CC2)CC(=O)N(C2=CC(=O)CC2)C3)ccc2c1COC2=O [Example 12]	6.28
Cc1nc(-n2cnnn2)ccc1C(O)CN1CCC2(CC1)CC(=O)N(C1=CC(=O)CC1)C2 (centres unmarked) [Example 13]	6.45
Cc1nc(-n2cnnn2)ccc1C(O)CN1CCC2(CC1)CCN(C1=CC(=O)CC1)C2=O (centres unmarked) [Example 14]	7.06
Cc1nc(-n2cnnn2)ccc1C(O)CN1CCC2(CC1)CCN(C1=CS(=O)(=O)CC1)C2=O (centres unmarked) [Example 15]	7.25
Cc1c([C@@H](O)CN2CCC3(CC2)CCN(C2=CS(=O)(=O)CC2)C3=O)ccc2c1COC2=O [Example 16]	6.56
Cc1nc(-n2cnnn2)ccc1C(O)CN1CCC2(CC1)CC(=O)N(C1=CS(=O)(=O)CC1)C2 (centres unmarked) [Example 17]	6.22
CC1=C(N2CCC3(CCN(CC(O)c4ccc(-n5cnnn5)nc4C)CC3)C2=O)CCC1=O (centres unmarked) [Example 18]	7.32
CC1=C(N2CCC3(CCN(C[C@H](O)c4ccc5c(c4C)COC5=O)CC3)C2=O)CCC1=O [Example 19]	7.21
CC1=C(N2CC3(CCN(C[C@H](O)c4ccc5c(c4C)COC5=O)CC3)CC2=O)CCC1=O [Example 20]	6.30
CC1=C(N2CCC3(CCN(C[C@H](O)c4ccc(-n5cnnn5)nc4)CC3)C2=O)CCC1=O [Example 21]	6.93
O=C1N(C2=CS(=O)(=O)CC2)CCC12CCN(C[C@H](O)c1ccc(-n3cnnn3)nc1)CC2 [Example 22]	6.94
O=C1C=C(N2CCC3(CCN(C[C@H](O)c4ccc(-n5cnnn5)nc4)CC3)C2=O)CC1 [Example 23]	6.73
CC1=C(N2CCC3(CCN(CC(O)c4ncc(-n5cnnn5)cc4C)CC3)C2=O)CCC1=O (centres unmarked) [Example 24]	6.41
CC1=C(N2CCC3(CCN(CC(O)c4ncc(-n5cnnn5)cc4C)CC3)C2=O)CCC1=O (centres unmarked) [Example 25]	6.46
CC1=C(N2CCC3(CCN(CC(O)c4ccc(-n5cnnn5)cc4C)CC3)C2=O)CCC1=O (centres unmarked) [Example 26]	7.06

Molecule	pIC50
CC1=C(N2CCC3(CCN(CC(O)c4ccc(-n5cnnn5)cc4C)CC3)C2=O)CCC1=O (centres unmarked) [Example 27]	7.13
CC1=C(N2CCC3(CCN(CC(O)c4cnc(-n5cnnn5)c(F)c4)CC3)C2=O)CCC1=O (centres unmarked) [Example 28]	6.53
CC1=C(N2CCC3(CCN(CC(O)c4cnc(-n5cnnn5)c(F)c4)CC3)C2=O)CCC1=O (centres unmarked) [Example 29]	6.17
O=C1C=C(N2CCC3(CCN(CC(O)c4cnc(-n5cnnn5)c(F)c4)CC3)C2=O)CC1 (centres unmarked) [Example 30]	6.38
O=C1C=C(N2CCC3(CCN(CC(O)c4cnc(-n5cnnn5)c(F)c4)CC3)C2=O)CC1 (centres unmarked) [Example 31]	6.12
CC1=C(N2CCCC3(CCN(CC(O)c4ccc(-n5cnnn5)nc4C)CC3)C2=O)CCC1=O (centres unmarked) [Example 32]	6.19
Cc1nc(-n2cnnn2)ccc1C(O)CN1CCC2(CCCN(C3=CC(=O)CC3)C2=O)CC1 (centres unmarked) [Example 33]	7.76
Cc1c([C@@H](O)CN2CCC3(CCCN(C4=CC(=O)CC4)C3=O)CC2)ccc2c1COC2=O [Example 34]	7.96
Cc1cc(-n2cnnn2)ccc1C(O)CN1CCC2(CC1)CCN(C1=CC(=O)CC1)C2=O (centres unmarked) [Example 35]	6.71
CC1=C(N2CCC3(CCN(CC(O)c4ccc(-n5cnnn5)cc4F)CC3)C2=O)CCC1=O (centres unmarked) [Example 36]	6.27
O=C1C=C(N2CCC3(CCN(CC(O)c4ccc(-n5cnnn5)cc4F)CC3)C2=O)CC1 (centres unmarked) [Example 37]	6.34
Cc1nc(-n2cnnn2)ccc1C(O)CN1CCC2(CCCN(C3=CS(=O)(=O)CC3)C2=O)CC1 (centres unmarked) [Example 38]	7.05
CC1=C(N2CCC3(CCCN(C[C@H](O)c4ccc5c(c4C)COC5=O)CC3)C2=O)CCC1=O (some centres unmarked) [Example 39]	7.82
CC1=C(N2CCC3(CCCN(C[C@H](O)c4ccc5c(c4C)COC5=O)CC3)C2=O)CCC1=O (some centres unmarked) [Example 40]	7.15
Cc1cc(-n2cnnn2)ccc1C(O)CN1CCC2(CCCN(C3=CC(=O)CC3)C2=O)CC1 (centres unmarked) [Example 41]	7.97
O=C1C=C(N2CCCC3(CCN(CC(O)c4ccc(-n5cnnn5)cn4)CC3)C2=O)CC1 (centres unmarked) [Example 42]	7.22
CC1=C(N2CCC3(CCCN(CC(O)c4ccc(-n5cnnn5)nn4)CC3)C2=O)CCC1=O (centres unmarked) [Example 43]	6.25
CC1=C(N2CCC3(CCN(CC(O)c4ccc(-n5cnnn5)nn4)CC3)C2=O)CCC1=O (centres unmarked) [Example 44]	7.00
CC1=C(N2CCOC3(CCN(C[C@H](O)c4ccc5c(c4C)COC5=O)CC3)C2=O)CCC1=O [Example 45]	6.05
(1R,3R,5S)-8-((R)-2-hydroxy-2-(4-methyl-1-oxo-1,3-dihydroisobenzofuran-5-yl)ethyl)-1′-(2-methyl-3-oxocyclopent-1-en-1-yl)-8-azaspiro[bicyclo[3.2.1] octane-3,3′-pyrrolidin]-2′-one [Example 4]	6.32
